Source: US8247439B2, “Jasmonate derivatives, pharmaceutical compositions and methods of use thereof” (Sepal Pharma Ltd., priority 2005, dated 2012)

Key:
[1] = test system: Molt-4 lymphoblastic leukemia cells; experiment: Cytotoxicity of jasmonate derivatives in Molt-4 cells (Example 1, XTT/MTS assay); type: cell-based, Human; conditions: for Cytotoxic potency at 0.1 mM, first screening: Molt-4, 0.1 mM; for Cytotoxic potency, second screen: Molt-4, 0.01-0.1 mM, FIG. 2; for Cytotoxic potency compared to methyl jasmonate, first screening: Molt-4, 0.1-1 mM, FIGS. 1A and 1B; for Cytotoxic potency compared to methyl jasmonate, third screen: Molt-4, FIG. 3 and Table 1; for inhibition at 1 µM / inhibition at 10 µM / inhibition at 100 µM: Homo sapiens, MOLT-4, 24 hours, value (±spread), read-out: Cytotoxicity in Molt-4 cells (% of inhibition compared to control); for inhibition at 1 µM: 0.001 mM; for inhibition at 10 µM: 0.01 mM; for inhibition at 100 µM: 0.1 mM
Experimental: (§1) Measurement of reduction in the number of living cells was determined by the CellTiter 96 Aqueous Non-Radioactive Cell Proliferation Assay (XTT Cell Proliferation Kit assay (Biological industries, Beit-Haemek, Israel)). Upon completion of a given experiment, MTS (a tetrazolium compound) at 333 μg/ml+phenazine methosulfate (at 25 μM) was added to each well of the 96-well plate for 1 hour at 37° C. This allowed for development of a color reaction in which dehydrogenases reduce the MTS in metabolically active cells. Soluble MTS formazan product was measured at a wavelength of 490 nm using a CERES 900 HDI ELISA reader (Bio-Tek Instruments, Inc, Highland Park, Vt.).
(§2) Percentage of Optical density is directly proportional to the number of living cells in culture. Cytotoxicity (%) was calculated in the following way: [(OD of control cells —OD of drug-treated cells)/OD of control cells]×100.
The cytotoxicity of jasmonate derivatives A1-A6, B1 and B2 was compared to that of the previously studied jasmonate, methyl jasmonate (MJ). The cytotoxicity of each compound was determined in Molt-4-Human acute lymphoblastic leukemia cell-line.
[…] Each experimental point was performed in triplicates. Untreated cells were used as control. The test compounds were prepared as a stock of 100 mM in DMSO. Dilutions were performed in culture medium and DMSO so that the maximal concentration of DMSO in each well was 0.5%. […] Cytotoxicity and optical density were determined as described above.

Molt-4 (leukemia) cells [2] = experiment: Cytotoxicity in Molt-4 cells (Example 2, selectivity); type: cell-based; conditions: Homo sapiens, 24 h; Molt-4, one day incubation
Experimental: as §1, §2
(§3) Molt-4 (leukemia) cells (at 2.5×10^4/ml), and normal peripheral blood lymphocytes (PBL, at 2×10^5/ml) were incubated in 96-well plates for one day in the presence of different concentrations of methyl jasmonate, (MJ—disclosed in U.S. Pat. No. 6,469,061), and compounds A3 and A4 of the present invention at concentrations: of 0.001, 0.01, 0.1 and 0.5 mM. In some experiments, PBL were pre-incubated with 0.8 μg/ml phytohemagglutinin (PHA)+5 ng/ml TPA for […], to induce entrance into the cell cycle. These cells proliferate and therefore are similar in that respect to cancer cells, making the comparison more valid. The optical density that represented viable cells was determined as described above.

[3] = test system: normal peripheral blood lymphocytes (PBL), -PHA/TPA; experiment: Cytotoxicity in normal PBL without PHA/TPA (Example 2); type: cell-based, Human; conditions: for IC20 / IC50: Homo sapiens, Lymphocyte, 24 h, PBL -PHA/TPA, one day incubation; for Selective cytotoxic effect: leukemic cells vs normal lymphocytes: Molt-4 vs PBL, FIGS. 4A and 4B
Experimental: as §1, §2, §3

[4] = test system: normal peripheral blood lymphocytes (PBL), +PHA/TPA; experiment: Cytotoxicity in normal PBL pre-incubated with PHA/TPA (Example 2); type: cell-based; conditions: Homo sapiens, Lymphocyte, 24 h, one day incubation
Experimental: as §1, §2, §3

Molt-4 = experiment: Cytotoxicity of B3 in Molt-4 (Example 4); type: cell-based; conditions: Homo sapiens; Molt-4, 24 hours, n=12
Experimental: as §1, §2
(§4) Mononuclear cells were isolated from peripheral blood of healthy donors and treated as described above. The non-adherent PBL were pre-incubated without PHA and TPA. Molt-4 and PBL cells were seeded in 96-well plates as described above.
(§5) Compound B3 was added at concentration ranging from 0.0025-1 mM for 24 hours. The number of repeats for each experiment is indicated by n. Untreated cells were used as control. […] Optical density and percentage of Cytotoxicity were determined as described above.

[5] = test system: CLL (PBL, chronic lymphocytic leukemia); experiment: Cytotoxicity of B3 in CLL cells (Example 4); type: cell-based; conditions: Homo sapiens, CLL cell, 24 hours, n=14
Experimental: as §1, §2
Cytotoxicity of compound B3 was evaluated in 1) Molt 4 cells (an in-vitro model for transformed cells); 2) PBL (an ex vivo model for normal cells); and 3) PBL CLL—Peripheral blood lymphocytes collected from chronic lymphocytic leukemia patients (an ex vivo model for ex vivo transformed cells). […]
Compound B3 was added at concentration ranging from 0.0025-1 mM for 24 hours. […] Optical density and percentage of Cytotoxicity were determined as described above.

NCI H460 = experiment: Cytotoxicity of B3 in NCI H460 (Example 4); type: cell-based; conditions: Homo sapiens; NCI H460, 24 hours, n=3
Experimental: as §1, §2
(§6) Compound B3 was added at concentration ranging from 0.0025-1 mM for 24 hours. The number of repeats for each experiment is indicated by n. Untreated cells were used as control. Compound B3 was prepared as a stock of 100 mM in 100% DMSO and dilutions in medium were prepared as described above. Optical density and percentage of Cytotoxicity were determined as described above.

B16 = experiment: Cytotoxicity of B3 in B16 (Example 4); type: cell-based; conditions: Mus musculus; B16, 24 hours, n=6
Experimental: as §1, §2, §6

HTB38 = experiment: Cytotoxicity of B3 in HTB38 (Example 4); type: cell-based; conditions: Homo sapiens, HTB-38; HTB38, 24 hours, n=3
Experimental: as §1, §2, §6

LNCaP = experiment: Cytotoxicity of B3 in LNCaP (Example 4); type: cell-based; conditions: Homo sapiens, 24 hours, n=4
Experimental: as §1, §2, §6

PBL, healthy donors = experiment: Cytotoxicity of B3 in PBL of healthy donors (Example 4); type: cell-based, Human
Experimental: as §1, §2, §4, §5

Fibroblasts = experiment: Cytotoxicity of B3 in fibroblasts (Example 4); type: cell-based; conditions: Homo sapiens, Fibroblast, 24 hours, n=2
Experimental: as §1, §2, §6

Molt-4 cell line = experiment: Cytotoxicity of different batches of B3 towards Molt-4 (Example 5); type: cell-based, Human
Experimental: as §1, §2
The IC50 values in Molt-4 cells for B3 were 0.06 mM in average. For cytotoxicity evaluation in different cell lines B3-IV was used.

Molt 4 cell line = experiment: ATP depletion in Molt-4 (CellTiter-Glo luminescent assay, Example 7); type: cell-based; conditions: Homo sapiens; Molt-4, 1 hr exposure
Experimental: The effect of methyl jasmonate and compound B3 on ATP level depletion is studied in the Molt 4 cell line using ATP kit and luminometer (Cell titer—Glo Luminescent, cell viability assay, Promega, code G7571, Ref.)
Cell preparation: Cells (Molt 4) were seeded in 96-well opaque-walled plates. The number of cells (in a volume of 100 μL/well) was: 5×10^4 cells/well. Control wells contained 100 μL medium without cells (background luminescence) Incubations were performed at 37° C., 6% CO2, using the following culture medium: RPMI 1640, 10% FCS, 2 mM L-Glutamine and penicillin 200 U/ml+200 μg/ml streptomycin or equivalent. For the cell viability assay, cells were incubated for 12 min-24 hr. in the absence or presence of methyl jasmonate or several jasmonate derivatives of the present invention at 0.05-4 mM. Reagent Preparation The CellTiter-Glo® buffer and the lyophilized substrate were thawed and equilibrated to room temperature. The buffer was mixed with the substrate by vortexing for 1 minute. […]
The plates were equilibrated to room temperature [25° C.] for 30 min. […] The plates were allowed to incubate at 25° C. for 10 min in the Luminoskan to stabilize luminescence signal. Results were read through Record luminescence [Thermo-Luminoskan Ascent] or equivalent, with integration time of 2000 m. seconds per well and blanking time 5%. […] Percent of cytotoxicity was determined described above.

Molt-4 (leukemia) cells [6] = conditions: cited from earlier work
[7] = test system: normal peripheral blood lymphocytes (PBL), -PHA/TPA; conditions: cited from earlier work
lymphomas = conditions: mice; cited from earlier work

CCCCCC1c2nc(NC(=O)c3cnccn3)sc2CC1CC(=O)NC1CC1 (centres unmarked) [Compound A1]
Cytotoxic potency at 0.1 mM, first screening [1]: very potent | Cytotoxic potency, second screen [1]: most potent | Cytotoxic potency compared to methyl jasmonate, first screening [1]: more potent than methyl jasmonate

CCCCCC1c2nc(N)sc2CC1CC(=O)N1CCN(C)CC1 (centres unmarked) [Compound A2]
Cytotoxic potency compared to methyl jasmonate, first screening [1]: more potent than methyl jasmonate

CCCCCC1c2nc(NC(=O)Cc3cccs3)sc2CC1CC(=O)O (centres unmarked) [Compound A3]
Cytotoxic potency at 0.1 mM, first screening [1]: very potent | Cytotoxic potency, second screen [1]: most potent | Cytotoxic potency compared to methyl jasmonate, first screening [1]: more potent than methyl jasmonate | Cytotoxic potency compared to methyl jasmonate, third screen [1]: significantly more potent than methyl jasmonate | IC20 (Molt-4 (leukemia) cells [2]): 10 µM | IC50 (Molt-4 (leukemia) cells [2]): 50 µM | IC20 [3]: 30 µM | IC50 [3]: 250 µM | Selective cytotoxic effect: leukemic cells vs normal lymphocytes [3]: without exerting a substantial effect on normal lymphocytes | IC20 [4]: 70 µM | IC50 [4]: 300 µM

CCCCCC1c2nc(-c3ccccc3)sc2CC1CC(=O)N1CCC(O)CC1 (centres unmarked) [Compound A4]
inhibition at 1 µM [1]: 4% | inhibition at 10 µM [1]: 10% | inhibition at 100 µM [1]: 96% | Cytotoxic potency at 0.1 mM, first screening [1]: very potent | Cytotoxic potency, second screen [1]: most potent | Cytotoxic potency compared to methyl jasmonate, first screening [1]: more potent than methyl jasmonate | Cytotoxic potency compared to methyl jasmonate, third screen [1]: significantly more potent than methyl jasmonate | IC20 (Molt-4 (leukemia) cells [2]): < 10 µM | IC50 (Molt-4 (leukemia) cells [2]): 45 µM | IC20 [3]: < 10 µM | Selective cytotoxic effect: leukemic cells vs normal lymphocytes [3]: without exerting a substantial effect on normal lymphocytes | IC20 [4]: 25 µM

CCCCCC1c2nc(NS(=O)(=O)c3cccc(F)c3)sc2CC1CC(=O)OC (centres unmarked) [Compound A5]
Cytotoxic potency at 0.1 mM, first screening [1]: very potent | Cytotoxic potency compared to methyl jasmonate, first screening [1]: more potent than methyl jasmonate

CCCCCC1c2nc(Nc3ccccc3)sc2CC1CC(=O)NCCOC (centres unmarked) [Compound A6]
Cytotoxic potency at 0.1 mM, first screening [1]: very potent | Cytotoxic potency, second screen [1]: most potent | Cytotoxic potency compared to methyl jasmonate, first screening [1]: more potent than methyl jasmonate

CC/C=C\CC1C(=O)CCC1CCOC(=O)CC1CCC(=O)C1C/C=C\CC (centres unmarked) [Compound B3]
IC50 (Molt-4): 70 µM | IC50 [5]: 250 µM | IC50 (NCI H460): > 1000 µM | IC50 (B16): 700 µM | IC50 (HTB38): > 1000 µM | IC50 (LNCaP): > 1000 µM | IC50 (PBL, healthy donors; Homo sapiens, PBL healthy donors, without PHA/TPA, 24 hours, n=12): 1000 µM | Selective cytotoxicity towards cancer cells (PBL, healthy donors; Molt-4, CLL vs PBL, FIG. 5): exhibits selective cytotoxicity towards cancer cells | IC50 (Fibroblasts): > 500 µM | IC50 (Molt-4 cell line; Homo sapiens, MOLT-4, Molt-4): 60 µM | IC50 (Molt-4 cell line; Molt-4, listed as B3 (IV)): 50 µM | IC50 (Molt-4 cell line; Molt-4, listed as B3 (V)): 80 µM | IC50 (Molt 4 cell line): 500 µM

CC/C=C\CC1C(=O)CCC1CC(=O)OC (centres unmarked) [MJ, methyl jasmonate, reference compound]
inhibition at 1 µM [1]: 6% | inhibition at 10 µM [1]: 5% | inhibition at 100 µM [1]: 17% | IC20 (Molt-4 (leukemia) cells [2]): 30 to 50 µM | IC50 (Molt-4 (leukemia) cells [2]): 100 to 500 µM | IC20 [3]: > 500 µM | IC50 [3]: > 500 µM | IC20 [4]: > 500 µM | IC50 [4]: > 500 µM | IC50 (Molt-4 cell line; Homo sapiens, MOLT-4, Molt-4): 600 µM | IC50 (Molt 4 cell line): 500 µM | Cytotoxicity to Molt-4 cells (previously reported data) (Molt-4 (leukemia) cells [6]): cytotoxic to Molt-4 cells | Toxicity to normal lymphocytes (previously reported data) [7]: almost not toxic to normal lymphocytes | Prevention of development of lymphomas (lymphomas): effective in preventing development of lymphomas in mice
